# Experimental data reported in ChEMBL document CHEMBL2321714, “Novel Aza-resveratrol analogs: synthesis, characterization and anticancer activity against breast cancer cell lines” (Bioorg Med Chem Lett, 2013).
# The source made the active and inactive calls. No cut-off for these calls is given here.
# How the values were obtained:
# [1] = test system: T47D; assay: Induction of autophagy in human T47D cells assessed as increase in Beclin-1 expression at 50 uM after 12 hrs by Western blot analysis; format: functional, cell-based
# [2] = test system: MDA-MB-231; assay: Cytotoxicity against human MDA-MB-231 cells by MTT assay; format: functional, cell-based
# [3] = test system: MDA-MB-231; assay: Cytotoxicity against human MDA-MB-231 cells at 50 uM by MTT assay; format: functional
# [4] = test system: T47D; assay: Cytotoxicity against human T47D cells by MTT assay; format: functional, cell-based
# [5] = test system: T47D; assay: Cytotoxicity against human T47D cells at 50 uM by MTT assay; format: functional
# [6] = test system: MCF-10A; assay: Cytotoxicity against human MCF10A cells at 50 uM by MTT assay; format: cell-based
# [7] = test system: MDA-MB-231; assay: Induction of autophagy in human MDA-MB-231 cells assessed as increase in Beclin-1 expression at 50 uM after 12 hrs by Western blot analysis; format: functional, cell-based
SMILES,Activity [1],IC50 [2] [µM],Activity [3],IC50 [4] [µM],Activity [5],Activity [6],Activity [7]
Oc1ccc(/N=C/c2ccc(O)c(O)c2)cc1,Active,29,65%,44,40%,Non-toxic,Active
Oc1ccc(/C=C/c2cc(O)cc(O)c2)cc1 [RESVERATROL],–,66,40%,76,40%,–,–
Cc1ccc(/N=C/c2ccc(O)c(O)c2)cc1,Active,21,65%,32,40%,Non-toxic,Active
COc1ccc(/N=C/c2ccc(O)c(O)c2)cc1,–,–,Active,–,Active,Non-toxic,–
Oc1ccc(/C=N/c2ccc(Cl)cc2)cc1O,–,–,Active,–,Active,Non-toxic,–
Oc1ccc(/C=N/c2ccc(F)cc2)cc1O,–,–,Active,–,Active,Non-toxic,–
Oc1ccc(/C=N/c2ccc3[nH]ccc3c2)cc1O,–,–,inactive,–,40%,Non-toxic,–
